Target: T1, Lysosomal phospholipase A and acyltransferase (Homo sapiens, UniProt Q8NCC3)
T1 sequence (Q8NCC3 whole entry): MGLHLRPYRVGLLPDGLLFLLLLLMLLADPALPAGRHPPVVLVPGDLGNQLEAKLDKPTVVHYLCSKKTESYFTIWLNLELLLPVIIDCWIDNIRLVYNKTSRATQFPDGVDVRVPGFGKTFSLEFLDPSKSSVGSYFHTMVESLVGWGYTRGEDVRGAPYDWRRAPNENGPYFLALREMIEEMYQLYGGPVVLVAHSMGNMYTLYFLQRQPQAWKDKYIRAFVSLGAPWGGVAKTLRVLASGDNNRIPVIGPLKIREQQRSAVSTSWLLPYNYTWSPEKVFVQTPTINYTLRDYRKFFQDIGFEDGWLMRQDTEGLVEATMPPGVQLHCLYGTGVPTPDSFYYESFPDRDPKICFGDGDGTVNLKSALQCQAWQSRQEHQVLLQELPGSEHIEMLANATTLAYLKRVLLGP
Test: Inhibitory activity against phospholipase A2 enzyme

IC50: 9.75 mM
Compound: CCCCCCCCCCP(=O)(O)OC(COCCCCCCCCCC(=O)OC)COP(=O)([O-])OCC[N+](C)(C)C (stereo unspecified) [ESTER OF PHOSPHOLIPID]

From ChEMBL document CHEMBL1130363, “Design and synthesis of hapten to induce phospholipase A2-like catalytic antibody” (Bioorg Med Chem Lett, 1997)
